Results published in patent US20020091095A1, “Modulation of Fas and FasL expression” (priority 1999, published 2002).

What was measured:
Fas [1] = test: Inhibition of Fas expression on Jurkat cells by cycloheximide; format: cell-based, human; conditions: Jurkat cells, 0.1 μg/ml cycloheximide
Procedure: (§1) Fas and FasL expression were measured by flow cytometry using anti-Fas FITC-conjugated monoclonal antibodies and anti-FasL PE-conjugated monoclonal antibodies in a FACScalibur Flow Cytometer (Becton Dickinson, San Jose, Calif., USA) using the CELLQuest program (Becton Dickinson).
(§2) Results are expressed as percentage (%) increase in the expression of Fas and of FasL measured on treated cells compared to control cells.
Jurkat human leukemia T cells were pre-incubated with 0.0 μg/ml (−CHX) or with 0.1 μg/ml of cycloheximide (+CHX) for 1 h. Ten μg/ml or 100 μg/ml of 6 base SEQ ID NO:5 (GGGTGG) was added to both the −CHX and +CHX cells and the incubation was continued for 24 hours and for 48 hours (Table 10).

FasL [2] = test: FasL expression at the cell surface by flow cytometry, Jurkat cells; format: cell-based; conditions: Jurkat human leukemia T cells, 100 μg/ml sequence, 48 h, treated vs control cells
Procedure: (§3) Cancer cells and PBMCs were seeded in 6 well flat-bottom microplates and were maintained at 37° C. in a 5% CO2 atmosphere. Unless stated otherwise, 2×10^5 cells/ml were incubated for 48 h with 0 μg/ml (control) or 100 μg/ml ([…]) (treated) of the sequences.
as §1, §2
(§4) Jurkat human leukemia T cells are an atypical multi-drug resistant human suspension tumor cell model.

EAE = EAE in (SJL/J×PL/J) F1 mice induced with myelin basic protein; format: in vivo; conditions: for efficacy, dose dependence: 1, 10 or 100 mg/kg; for progression of EAE: sequence 1, 10 or 100 mg/kg + anti-Fas antibodies, for 3 days
Procedure: Female (SJL/J×PL/J) F1 mice are injected subcutaneously in both femoral regions with an emulsion containing 0.5 mg of myelin basic protein (MBP) mixed with complete Freund's adjuvant. After 24 h, 400 ng of Bordetella pertussis toxin is administered intraperitoneally. On the day of onset (day 0), group 1 mice receive saline, group 2 mice receive 1, 10 or 100 mg/kg of SEQ. ID NO:5, group 3 mice receive 1, 10 or 100 mg/kg of SEQ. ID NO:16, group 4 mice receive 1, 10 or 100 mg/kg of SEQ. ID NO:17, group 5 mice receive 1, 10 or 100 mg/kg of SEQ. ID NO: 18, group 6 mice receive anti-Fas antibodies, group 7 mice receive 1, 10 or 100 mg/kg of SEQ. ID NO:5 +anti-Fas antibodies, group 8 mice receive 1, 10 or 100 mg/kg of SEQ. ID NO:16 +anti-Fas antibodies, group 9 receive 1, 10 or 100 mg/kg of SEQ. ID NO:17 +anti-Fas antibodies, group 10 mice receive 1, 10 or 100 mg/kg of SEQ. ID NO: 18 +anti-Fas antibodies for 3 days by intracistemal administration (20 μg/day). In these different groups, anti-Fas antibodies are administered at any dose in the range of about 0.003 to about 0.3 mg/kg. […] The efficacy of the SEQ. ID NO:5, the SEQ. ID NO: 16 and the SEQ. ID NO: 17 is dose-dependent.

Fas [3] = test: Fas expression at the cell surface by flow cytometry, MCF-7 cells; format: cell-based, human; conditions: MCF-7 breast cancer cells, 100 μg/ml sequence, 48 h, treated vs control cells
Procedure: as §3, §1, §2
(§5) MCF-7 human breast cancer cells are a caspase-3 negative, estrogen-dependent human solid tumor model.

FasL [4] = test: FasL expression at the cell surface by flow cytometry, LNCaP cells; format: cell-based, human; conditions: LNCaP prostate cancer cells, 100 μg/ml sequence, 48 h, treated vs control cells
Procedure: as §3, §1, §2
(§6) LNCaP prostate cancer cells are a TGF-beta 1 receptor negative, […], metastatic human solid tumor model.

FasL [5] = test: FasL expression at the cell surface by flow cytometry, UMUC-3 cells; format: cell-based, human; conditions: UMUC-3 bladder cancer cells, 100 μg/ml sequence, 48 h, treated vs control cells
Procedure: as §3, §1, §2
(§7) UMUC-3 bladder cancer cells are a P-glycoprotein overexpressing human cell line.

Fas [6] = test: Fas expression at the cell surface by flow cytometry, PBMCs; format: cell-based, human; conditions: 100 μg/ml sequence, 48 h, treated vs control cells
Procedure: (§8) Peripheral blood mononuclear cells (hereinafter, “PBMCs”) were isolated from human blood by Ficoll-Hypaque (Amersham Pharmacia Biotech, Baie d'Urfée, Québec, Canada) density gradient centrifugation.
as §3, §1, §2

FasL [7] = test: FasL expression at the cell surface by flow cytometry, PBMCs; format: cell-based, human; conditions: 100 μg/ml sequence, 48 h, treated vs control cells
Procedure: as §8, §3, §1, §2

Fas [8] = test: Fas expression at the cell surface by flow cytometry, SK-OV-3 cells; format: cell-based, human; conditions: SK-OV-3 ovarian cancer cells, 100 μg/ml sequence, 48 h, treated vs control cells
Procedure: as §3, §1, §2
(§9) SK-OV-3 ovarian cancer cells are a p53 mutated, p21/waf-1/Cip deleted, p15^ink4B,p16^ink4 deleted metastatic human solid tumor model.

Fas [9] = test: Fas expression at the cell surface by flow cytometry, OVCAR-3 cells; format: cell-based, human; conditions: OVCAR-3 ovarian cancer cells, 100 μg/ml sequence, 48 h, treated vs control cells
Procedure: as §3, §1, §2
(§10) OVCAR-3 ovarian cancer cells are a p53 mutated, p21/waf-1/Cip deleted, metastatic human solid tumor model.

[10] = system: EL-4 murine T lymphoma cells; test: EL-4 murine T lymphoma implanted in C57/BL6 lpr/lpr mice; format: in vivo; conditions: for efficacy, dose dependence: 1, 10 or 100 mg/kg
Procedure: EL-4 murine T lymphoma cells are implanted into C57/BL6 lpr/lpr (Fas negative mice). The mice are divided into 30 groups of 10 mice. On day 0, group 1 mice receive saline, group 2 mice receive 1, 10 or 100 mg/kg of SEQ. ID NO:5, group 3 mice receive 1, 10 or 100 mg/kg of SEQ. ID NO:16, group 4 receive 1, 10 or 100 mg/kg of SEQ. ID NO:17, group 5 mice receive 1, 10 or 100 mg/kg of SEQ. ID NO: 18, group 6 mice receive anti-Fas antibodies, group 7 mice receive 1, 10 or 100 mg/kg of SEQ. ID NO:5 +anti-Fas antibodies, group 8 mice receive 1, 10 or 100 mg/kg of SEQ. ID NO: 16 +anti-Fas antibodies, group 9 receive 1, 10 or 100 mg/kg of SEQ. ID NO:17 +anti-Fas antibodies, group 10 mice receive 1, 10 or 100 mg/kg of SEQ. ID NO:18 +anti-Fas antibodies. In these different groups, anti-Fas antibodies are administered at any dose in the range of about 0.003 to about 0.3 mg/kg. […] The efficacy of the SEQ. ID NO:5, the SEQ. ID NO: 16 and the SEQ. ID NO: 17 is dose-dependent.

FasL [11] = test: FasL expression at the cell surface by flow cytometry, OVCAR-3 cells; format: cell-based, human; conditions: OVCAR-3 ovarian cancer cells, 100 μg/ml sequence, 48 h, treated vs control cells
Procedure: as §3, §1, §2, §10

FasL [12] = test: FasL expression at the cell surface by flow cytometry, T-24 cells; format: cell-based, human; conditions: T-24 bladder cancer cells, 100 μg/ml sequence, 48 h, treated vs control cells
Procedure: as §3, §1, §2
(§11) T-24 bladder cancer cells are a p53 mutated human cell line T-24 cells (1.0×10^5 cells/ml) were incubated with the 6 base sequences shown in Table 4.

Fas [13] = test: Fas expression at the cell surface by flow cytometry, LNCaP cells; format: cell-based, human; conditions: LNCaP prostate cancer cells, 100 μg/ml sequence, 48 h, treated vs control cells
Procedure: as §3, §1, §2, §6

Fas [14] = test: Fas expression at the cell surface by flow cytometry, UMUC-3 cells; format: cell-based, human; conditions: UMUC-3 bladder cancer cells, 100 μg/ml sequence, 48 h, treated vs control cells
Procedure: as §3, §1, §2, §7

FasL [15] = test: FasL expression at the cell surface by flow cytometry, MCF-7 cells; format: cell-based, human; conditions: MCF-7 breast cancer cells, 100 μg/ml sequence, 48 h, treated vs control cells
Procedure: as §3, §1, §2, §5

FasL [16] = test: FasL expression at the cell surface by flow cytometry, SK-OV-3 cells; format: cell-based, human; conditions: SK-OV-3 ovarian cancer cells, 100 μg/ml sequence, 48 h, treated vs control cells
Procedure: as §3, §1, §2, §9

Fas [17] = test: Fas expression at the cell surface by flow cytometry, Jurkat cells; format: cell-based; conditions: Jurkat human leukemia T cells, 100 μg/ml sequence, 48 h, treated vs control cells
Procedure: as §3, §1, §2, §4

Fas [18] = test: Fas expression at the cell surface by flow cytometry, T-24 cells; format: cell-based, human; conditions: T-24 bladder cancer cells, 100 μg/ml sequence, 48 h, treated vs control cells
Procedure: as §3, §1, §2, §11

[19] = sequence 1, 10 or 100 mg/kg + anti-Fas antibodies, vs all other groups
[20] = single agent (sequence 1, 10 or 100 mg/kg, or anti-Fas antibodies) vs group 1 (saline)

Compound	% INCREASE FasL (FasL [2]) [%]	efficacy, dose dependence (EAE)	progression of EAE (EAE)	% INCREASE Fas (Fas [3]) [%]	% INCREASE FasL (FasL [4]) [%]	% INCREASE FasL (FasL [5]) [%]	% INCREASE Fas (Fas [6]) [%]	% INCREASE FasL (FasL [7]) [%]	% INCREASE Fas (Fas [8]) [%]	% INCREASE Fas (Fas [9]) [%]	tumor mass [10, 19]	tumor mass [10, 20]	% INCREASE FasL (FasL [11]) [%]	% INCREASE FasL (FasL [12]) [%]	% INCREASE Fas (Fas [13]) [%]	% INCREASE Fas (Fas [14]) [%]	% INCREASE FasL (FasL [15]) [%]	% INCREASE FasL (FasL [16]) [%]	% INCREASE Fas (Fas [17]) [%]	% INCREASE Fas (Fas [18]) [%]	other results
C[C@@H]1C[C@@H]([C@H](O)CC2CC(=O)NC(=O)C2)C(=O)[C@@H](C)C1 [cycloheximide, reference compound]																					decrease of Fas expression by cycloheximide (Fas [1]; with 10 μg/ml of SEQ ID NO:5, after 24 h): 92%; decrease of Fas expression by cycloheximide (Fas [1]; with 10 μg/ml of SEQ ID NO:5, after 48 h): 44%; decrease of Fas expression by cycloheximide (Fas [1]; with 100 μg/ml of SEQ ID NO:5, after 24 h): 65%; decrease of Fas expression by cycloheximide (Fas [1]; with 100 μg/ml of SEQ ID NO:5, after 48 h): 23%
GGGAGG [SEQ ID NO:17]	91	dose-dependent	least progression of EAE	127	55	106	266	356	−6	49	least tumor mass	less tumor mass	59	75	48	39	194	−16	77	124	efficacy, dose dependence [10]: dose-dependent
GGGCGG [SEQ ID NO:18]	356		least progression of EAE	165	126	250	523	850	29	65	least tumor mass	less tumor mass	142	205	55	72	322	42	208	139	
GGGGGG [SEQ ID NO:16]	49	dose-dependent	least progression of EAE	−7	13	10	38	42	−14	−1	least tumor mass	less tumor mass	7	−14	6	−5	18	−28	118	35	efficacy, dose dependence [10]: dose-dependent
